Laboratory results published in PMC3269786 (Neuron, 2012).

Legend:
GHSR1a + DRD2 = GHSR1a + DRD2 (Homo sapiens, UniProt P14416+Q92847); type: cell-based
rats = details: 6 day central infusion, ref Petersen et al., 2009; cited from earlier work
[1] = system: primary cultures of hypothalamic neurons; test: Fluo-4 Ca2+ mobilization in primary hypothalamic neurons; type: cell-based, mouse; details: quinpirole 10 µM; ghrelin 100 nM after washing
SNAP-GHSR1a = SNAP-GHSR1a (Homo sapiens, UniProt Q92847); test: Tr-FRET red-ghrelin binding assay in HEK293 cells expressing SNAP-GHSR1a
SNAP-GHSR1a, sequence (Q92847 whole entry): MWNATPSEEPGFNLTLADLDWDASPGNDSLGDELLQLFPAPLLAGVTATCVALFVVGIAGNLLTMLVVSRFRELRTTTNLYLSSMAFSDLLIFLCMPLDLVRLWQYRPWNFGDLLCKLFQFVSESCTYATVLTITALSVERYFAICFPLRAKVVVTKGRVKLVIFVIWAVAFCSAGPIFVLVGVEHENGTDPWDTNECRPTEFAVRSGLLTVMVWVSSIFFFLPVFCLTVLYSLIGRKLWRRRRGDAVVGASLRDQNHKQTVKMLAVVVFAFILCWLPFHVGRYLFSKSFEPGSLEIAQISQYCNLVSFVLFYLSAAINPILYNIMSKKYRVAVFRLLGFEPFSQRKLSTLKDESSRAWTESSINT

[2] = biological target: GHSR1a and DRD2 co-expressed in SH-SY5Y cells (SH-GHSR1a) (Homo sapiens, UniProt P14416+Q92847); type: cell-based; details: quinpirole 10 µM; pretreatment 5 min
GHSR1a and DRD2 co-expressed in SH-SY5Y cells (SH-GHSR1a), sequence (Q92847 whole entry): as above
GHSR1a and DRD2 co-expressed in SH-SY5Y cells (SH-GHSR1a), sequence (P14416 whole entry): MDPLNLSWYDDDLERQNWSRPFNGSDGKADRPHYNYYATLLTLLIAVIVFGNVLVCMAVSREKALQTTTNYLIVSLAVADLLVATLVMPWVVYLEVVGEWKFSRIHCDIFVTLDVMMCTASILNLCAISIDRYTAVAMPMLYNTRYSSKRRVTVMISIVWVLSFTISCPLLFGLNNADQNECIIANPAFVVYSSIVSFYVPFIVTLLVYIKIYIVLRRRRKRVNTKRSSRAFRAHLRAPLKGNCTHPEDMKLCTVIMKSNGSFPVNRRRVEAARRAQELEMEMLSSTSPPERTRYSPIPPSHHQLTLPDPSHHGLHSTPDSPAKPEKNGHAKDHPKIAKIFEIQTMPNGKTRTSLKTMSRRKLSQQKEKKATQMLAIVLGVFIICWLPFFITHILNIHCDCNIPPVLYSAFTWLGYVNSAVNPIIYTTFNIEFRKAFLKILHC

SNAP-M213K-GHSR1a = SNAP-M213K-GHSR1a (UniProt Q92847); test: FRET or BRET
SNAP-M213K-GHSR1a, sequence (Q92847 whole entry M213K): as the sequence (Q92847 whole entry) above, with M213K counted along it

[3] = biological target: SNAP-GHSR1a (growth hormone secretagogue receptor / ghrelin receptor with a SNAP-tag at the N-terminus) (UniProt Q92847); test: FRET or BRET
SNAP-GHSR1a (growth hormone secretagogue receptor / ghrelin receptor with a SNAP-tag at the N-terminus), sequence (Q92847 whole entry): as the sequence (Q92847 whole entry) above

SNAP-F279L-GHSR1a = SNAP-F279L-GHSR1a (UniProt Q92847); test: FRET or BRET
SNAP-F279L-GHSR1a, sequence (Q92847 whole entry F279L): as the sequence (Q92847 whole entry) above, with F279L counted along it

[4] = system: mice (ghsr+/+, ghsr−/−, ghrelin+/+, ghrelin−/−); test: Food intake experiments in mice; type: in vivo, mouse; details: for food intake compared to vehicle: 0.5 mg/kg i.p.
humans = details: ref Korner et al., 2003; cited from earlier work

GHSR1a + DRD2, sequence (Q92847 whole entry, the tested form may be a part): as the sequence (Q92847 whole entry) above
GHSR1a + DRD2, sequence (P14416 whole entry, the tested form may be a part): as the sequence (P14416 whole entry) above
HA-CLIP-DRD2, sequence (P14416 whole entry): as above

NCCOB(c1ccccc1)c1ccccc1 [2-aminoethoxydiphenyl borate]
effect on dopamine-induced Ca2+ signaling (GHSR1a + DRD2): blocked

CCN1CCCC1CNC(=O)c1cc(S(N)(=O)=O)ccc1OC (stereo not drawn) [sulpiride]
effect on dopamine-induced Ca2+ signaling (GHSR1a + DRD2): dose-dependently inhibited
effect on ghrelin-induced Ca2+ mobilization (GHSR1a + DRD2; GHSR1a+DRD2 cells, ghrelin 100 nM): partially inhibited

[D-Arg1,D-Phe5,D-Trp7,9,Leu11]-substance P
food intake and weight gain (rats): modest reductions in food intake and weight gain

CCCCCCCC(=O)OC[C@H](NC(=O)[C@H](CO)NC(=O)CN)C(=O)N[C@@H](Cc1ccccc1)C(=O)N[C@@H](CC(C)C)C(=O)N[C@@H](CO)C(=O)N1CCC[C@H]1C(=O)N[C@@H](CCC(=O)O)C(=O)N[C@@H](Cc1c[nH]cn1)C(=O)N[C@@H](CCC(N)=O)C(=O)N[C@@H](CCCNC(=N)N)C(=O)N[C@H](C(=O)N[C@@H](CCC(N)=O)C(=O)N[C@@H](CCC(N)=O)C(=O)N[C@@H](CCCNC(=N)N)C(=O)N[C@@H](CCCCN)C(=O)N[C@@H](CCC(=O)O)C(=O)N[C@@H](CO)C(=O)N[C@@H](CCCCN)C(=O)N[C@@H](CCCCN)C(=O)N1CCC[C@H]1C(=O)N1CCC[C@H]1C(=O)N[C@@H](C)C(=O)N[C@@H](CCCCN)C(=O)N[C@@H](CC(C)C)C(=O)N[C@@H](CCC(N)=O)C(=O)N1CCC[C@H]1C(=O)N[C@@H](CCCNC(=N)N)C(=O)O)C(C)C [ghrelin]
Ca2+ response in primary hypothalamic neurons [1]: immediate Ca^2+ response

CN1CCc2cc(Cl)c(O)cc2[C@@H](c2ccccc2)C1 [SCH23390]
effect on dopamine-induced Ca2+ signaling (GHSR1a + DRD2): ineffective

des-acyl ghrelin
inhibition of red ghrelin binding (SNAP-GHSR1a): ineffective

Oc1cc2c(c(Cl)c1O)CCNCC2c1ccccc1 (stereo not drawn) [SKF81297]
effect of preincubation on ghrelin-induced Ca2+ response (GHSR1a + DRD2; 30 min preincubation, ghrelin 100 nM): fails to inhibit

CCN1CCC[C@H]1CNC(=O)c1c(O)c(Cl)cc(Cl)c1OC [raclopride]
effect on quinpirole-induced Ca2+ signal [2]: Attenuation of the Ca^2+ signal
effect on dopamine-induced Ca2+ signaling (GHSR1a + DRD2): dose-dependently inhibited

HA-CLIP-DRD2 (from UniProt P14416 1-443) (receptor)
FRET50 (SNAP-M213K-GHSR1a): 0.79
FRET50 [3]: 0.086
FRET50 (SNAP-F279L-GHSR1a): 0.49

C=CCN1C[C@H](C(=O)N(CCCN(C)C)C(=O)NCC)C[C@@H]2c3cccc4[nH]cc(c34)C[C@H]21 [cabergoline]
food intake compared to vehicle ([4]; ghrelin+/+ and ghrelin−/− mice): significantly reduced food intake irrespective of genotype
food intake compared to vehicle ([4]; ghsr+/+ mice, within 2 h): markedly reduced
food intake compared to vehicle ([4]; ghsr−/− mice): unaffected
food intake ([4]; mice, cabergoline 0.5 mg/kg and 2 mg/kg): dose dependent suppression of food intake
body weight in treated humans (humans): weight loss
agonist-induced increase of [Ca2+]i (GHSR1a + DRD2; cells co-expressing GHSR1a + DRD2): dose-dependent mobilization of Ca^2+

JMV2959
effect on cabergoline-induced suppression of food intake ([4]; ghsr+/+ mice, JMV2959 0.2 mg/kg i.p. 30 min before cabergoline 0.5 mg/kg): prevented
effect on food intake in cabergoline treated mice ([4]; ghsr−/− mice, JMV2959 0.2 mg/kg i.p. 30 min before cabergoline 0.5 mg/kg): unaffected
